Measured values: patent US9278958B2, “Anti-cancer compounds” (KATHOLIEKE UNIVERSITEIT LEUVEN, priority 2012, dated 2016)
Like-named read-outs stand apart in the source and are kept apart here.

Experiments:
[1] = tested on: L1210 cells; assay: Cytostatic assay, L1210; type: cell-based; details: Mus musculus, Table 2
Outline: (§1)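 Read-out is the cell number after incubation, counted electronically (Coulter). Cultures started from 5-7.5×10^4 cells per well exposed to compound, kept 48 h to 96 h at 37° C under humidified CO2 control.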

[2] = tested on: LNCaP (UZ) prostate cancer cells; assay: Cytostatic assay, LNCaP (UZ); type: cell-based; details: Homo sapiens, Table 4
Outline: as §1

[3] = tested on: MT-4 cells; assay: Cytostatic assay, MT-4; type: cell-based; details: Homo sapiens, MT4; Table 2
Outline: as §1

[4] = tested on: RNA synthesis in Raji cells; assay: Antimetabolic activity assay, [5-3H]uridine incorporation (RNA synthesis), Raji; type: cell-based; details: Homo sapiens, incorporation into TCA-insoluble material
Description: [The procedure below names another cell line; the source lists this cell line under the same test.] (§2) Radiolabeled precursors of DNA synthesis ([^3H-methyl]dThd), RNA synthesis ([5-^3H]Urd), and protein synthesis ([4,5-^3H]leu) were added to 10^5 CEM cell cultures in the 200 μl-wells of a microtiter plate at 1 μCi for each precursor in the presence of varying concentrations of the test compounds (5-fold dilution series). The cells were allowed to proliferate for 20 hrs at 37° C. in a humidified, CO2-controlled atmosphere. At the end of the incubation period, the contents of the wells were brought onto 25-mm glass fiber filters and further processed for measurement of acid-insoluble radioactivity.

[5] = tested on: DNA synthesis in CEM cells; assay: Antimetabolic activity assay, [CH3-3H]dThd incorporation (DNA synthesis), CEM; type: cell-based; details: Homo sapiens, CCRF-CEM, incorporation into TCA-insoluble material
Description: as §2

[6] = tested on: broad variety of tumor cell lines; assay: Cytostatic assays, summary over the panel of cell lines (Tables 2-4); type: cell-based
Description: (§3) To each well of a 96-well microtiter plate were added 5-7.5×10^4 cells and a given amount of the test compound. The cells were allowed to proliferate for 48 h to 96 h (depending on the nature of the cell line) at 37° C. in a humidified CO2-controlled atmosphere. At the end of the incubation period, the cells were counted in a Coulter Counter (Coulter Electronics Ltd, Harpenden Herts, United Kingdom).

[7] = tested on: OST TK- osteosarcoma cells; assay: Cytostatic assay, OST TK-; type: cell-based; details: Homo sapiens; Table 3
Outline: as §1

[8] = tested on: PLC/PRF/5 hepatoma cells; assay: Cytostatic assay, PLC/PRF/5; type: cell-based; details: Homo sapiens, Table 4
Outline: as §1

[9] = tested on: Huh-7 hepatoma cells; assay: Cytostatic assay, Huh-7; type: cell-based; details: Homo sapiens, Table 4
Outline: as §1

[10] = tested on: C8166 cells; assay: Cytostatic assay, C8166; type: cell-based; details: Homo sapiens, Table 2
Outline: as §1

[11] = tested on: CEM cells; assay: Cytostatic assay, CEM; type: cell-based; details: Homo sapiens, CCRF-CEM
Outline: as §1

[12] = tested on: Caki-1 kidney carcinoma cells; assay: Cytostatic assay, Caki-1; type: cell-based; details: Homo sapiens, Table 3
Outline: as §1

[13] = tested on: HepG2C3A hepatoma cells; assay: Cytostatic assay, HepG2C3A; type: cell-based; details: Homo sapiens, HepG2/C3A; Table 4
Outline: as §1

[14] = tested on: HeLa cervix carcinoma cells; assay: Cytostatic assay, HeLa; type: cell-based, human; details: Homo sapiens; Table 3; read-out: Cytostatic activity (μM) Hela
Outline: as §1

[15] = tested on: FM3A mammary carcinoma cells; assay: Cytostatic assay, FM3A; type: cell-based, murine; details: Mus musculus, Table 3
Outline: as §1

[16] = tested on: Daudi, human B-lymphoma cells; assay: Cytostatic assay, Daudi; type: cell-based; details: Table 2
Description: as §3

[17] = tested on: DU145 (UZ) prostate cancer cells; assay: Cytostatic assay, DU145 (UZ); type: cell-based; details: Homo sapiens, DU-145; Table 4
Outline: as §1

[18] = tested on: PC-3 (UZ) prostate cancer cells; assay: Cytostatic assay, PC-3 (UZ); type: cell-based; details: Table 4
Outline: as §1

[19] = tested on: HT29 colorectal carcinoma cells; assay: Cytostatic assay, HT29; type: cell-based; details: Homo sapiens, HT-29; Table 3
Outline: as §1

[20] = tested on: Caki-2 kidney carcinoma cells; assay: Cytostatic assay, Caki-2; type: cell-based; details: Homo sapiens, Table 3
Outline: as §1

[21] = tested on: U937, human monocytic cells; assay: Cytostatic assay, U937; type: cell-based; details: U-937, Table 2
Outline: as §1

[22] = tested on: protein synthesis in Raji cells; assay: Antimetabolic activity assay, [4,5-3H]leucine incorporation (protein synthesis), Raji; type: cell-based; details: Homo sapiens, incorporation into TCA-insoluble material
Description: [The procedure below names another cell line; the source lists this cell line under the same test.] as §2

[23] = tested on: RNA synthesis in CEM cells; assay: Antimetabolic activity assay, [5-3H]uridine incorporation (RNA synthesis), CEM; type: cell-based; details: Homo sapiens, CCRF-CEM, incorporation into TCA-insoluble material
Description: as §2

[24] = tested on: HUT-78 cells; assay: Cytostatic assay, HUT-78; type: cell-based; details: Homo sapiens, HuT78; Table 2
Outline: as §1

[25] = tested on: DNA synthesis in Raji cells; assay: Antimetabolic activity assay, [CH3-3H]dThd incorporation (DNA synthesis), Raji; type: cell-based; details: Homo sapiens, incorporation into TCA-insoluble material
Description: [The procedure below names another cell line; the source lists this cell line under the same test.] as §2

[26] = tested on: BAEC aortic endothelial cells; assay: Cytostatic assay, BAEC; type: cell-based, bovine; details: Bos taurus, Table 3
Outline: as §1

[27] = tested on: HEL embryonic lung fibroblast cells; assay: Cytostatic assay, HEL; type: cell-based; details: Homo sapiens, Table 3
Outline: as §1

[28] = tested on: HOS CD4+ osteosarcoma cells; assay: Cytostatic assay, HOS CD4+; type: cell-based; details: Homo sapiens; Table 3
Description: as §3

[29] = tested on: MCF-7 mammary carcinoma cells; assay: Cytostatic assay, MCF-7; type: cell-based; details: Homo sapiens, MCF7; Table 3
Outline: as §1

[30] = tested on: U87 CD4+/CXCR4+/CCR5+ glioma cells; assay: Cytostatic assay, U87 CD4+/CXCR4+/CCR5+; type: cell-based; details: Homo sapiens, Glioma cell; Table 3
Description: as §3

[31] = tested on: HL60, human leukemia cells; assay: Cytostatic assay, HL-60; type: cell-based; details: Table 2
Outline: as §1

[32] = tested on: Sup T1 cells; assay: Cytostatic assay, Sup T1; type: cell-based; details: Homo sapiens, Table 2, read-out: Cytostatic activity (μM) Sup T 1
Outline: as §1

[33] = tested on: 293T embryonic kidney cells; assay: Cytostatic assay, 293T; type: cell-based; details: Homo sapiens, HEK-293T; Table 3
Outline: as §1

[34] = tested on: Molt4/C8 cells; assay: Cytostatic assay, Molt4/C8; type: cell-based; details: Table 2
Outline: as §1

[35] = tested on: PC3 (rega) prostate cancer cells; assay: Cytostatic assay, PC3 (rega); type: cell-based; details: Table 4
Outline: as §1

[36] = tested on: PNT1A (UZ) prostate cells; assay: Cytostatic assay, PNT1A (UZ); type: cell-based; details: Homo sapiens, Table 4
Outline: as §1

[37] = tested on: THP-1, human monocytic cells; assay: Cytostatic assay, THP-1; type: cell-based; details: Table 2
Outline: as §1

[38] = tested on: U87 glioma cells; assay: Cytostatic assay, U87; type: cell-based; details: Homo sapiens, U-87 MG; Table 3
Outline: as §1

[39] = tested on: MT-2 cells; assay: Cytostatic assay, MT-2; type: cell-based; details: Homo sapiens, MT2; Table 2
Outline: as §1

[40] = tested on: protein synthesis in CEM cells; assay: Antimetabolic activity assay, [4,5-3H]leucine incorporation (protein synthesis), CEM; type: cell-based; details: Homo sapiens, CCRF-CEM, incorporation into TCA-insoluble material
Description: as §2

[41] = tested on: BPH-1 (UZ); assay: Cytostatic assay, BPH-1 (UZ); type: cell-based; details: Homo sapiens, Table 4
Outline: as §1

[42] = tested on: 22Rv1 (UZ) prostate cancer cells; assay: Cytostatic assay, 22Rv1 (UZ); type: cell-based; details: Homo sapiens, Table 4
Outline: as §1

[43] = tested on: Raji, human B-lymphoma cells; assay: Cytostatic assay, Raji; type: cell-based; details: Table 2
Outline: as §1

[44] = Homo sapiens, HuT78, range for the seven compounds, MT-4 and HUT-78 cells, read-out: IC50 range, cytostatic activity against MT-4 and HUT-78 cells
[45] = range for the seven compounds against the 5 tumor cell lines, read-out: IC50 range, cytostatic activity against CEM, Molt4/C8, Sup T1, MT-2 and C8166 cells
[46] = Table 1a, read-out: IC50 μM (CEM)
[47] = Table 2, read-out: Cytostatic activity (μM) CEM

`COC(=O)c1cc(CCc2ccc(OC)cc2C)sc1N` [TR583, 2-Amino-5-[2-(4-methoxy-2-methyl-phenyl)-ethyl]-thiophene-3-carboxylic acid methyl ester] showed an IC50 [1] of 248 ± 40 µM, an IC50 [2] of 0.35 ± 0.067 µM and an IC50 [3] of 60 ± 0.71 µM. For the same compound, the IC50 [4] was over 100 µM, the IC50 [5] was 3.1 ± 0.3 µM and the IC50 [6, 44] was 8.5 to 60 µM. It also gave an IC50 [6, 45] of 0.22 to 3.4 µM, an IC50 [7] of 10 ± 6.9 µM and an IC50 [8] of 62 ± 21 µM. It also gave an IC50 [9] of 4.6 ± 0.28 µM, an IC50 [10] of 1.6 ± 0.95 µM and an IC50 [11, 46] of 1.5 µM. For the same compound, the IC50 [11, 47] was 1.5 ± 0.28 µM, the IC50 [12] was 4.5 ± 3.8 µM and the IC50 [13] was 13 ± 0.71 µM. For the same compound, the IC50 [14] was 105 ± 68 µM, the IC50 [15] was 49 ± 9.9 µM and the IC50 [16] was 61 ± 1.4 µM. It also gave an IC50 [17] of 14 ± 1.2 µM, an IC50 [18] of 1.3 ± 0.071 µM and an IC50 [19] of over 100 µM. It also gave an IC50 [20] of at least 200 µM, an IC50 [21] of 40 ± 2.8 µM and an IC50 [22] of over 100 µM. It also gave an IC50 [23] of 1 ± 0.5 µM, an IC50 [24] of 39 ± 27 µM and an IC50 [25] of over 100 µM. It also gave an IC50 [26] of 44 ± 22 µM, an IC50 [27] of 87 ± 19 µM and an IC50 [28] of 67 ± 6.4 µM. It also gave an IC50 [29] of 79 ± 30 µM, an IC50 [30] of 48 ± 6.4 µM and an IC50 [31] of 4.9 ± 5.4 µM. It also gave an IC50 [32] of 0.95 ± 0.64 µM, an IC50 [33] of 84 ± 23 µM and an IC50 [34] of 0.27 ± 0.27 µM. It also gave an IC50 [35] of 0.57 ± 0.3 µM, an IC50 [36] of over 100 µM and an IC50 [37] of 32 ± 4.9 µM. For the same compound, the IC50 [38] was over 100 µM, the IC50 [39] was 1.8 ± 0.64 µM and the IC50 [40] was 1.9 ± 1.6 µM. For the same compound, the IC50 [41] was over 100 µM, the IC50 [42] was 21 ± 17 µM and the IC50 [43] was 93 ± 11 µM.
Work on `COC(=O)c1cc(CCc2ccccc2)sc1N` [TR575, 2-Amino-5-phenethyl-thiophene-3-carboxylic acid methyl ester] yielded an IC50 [1] of 25 µM, an IC50 [2] of 0.35 ± 0.014 µM and an IC50 [3] of 27 ± 0.71 µM. For the same compound, the IC50 [4] was over 100 µM, the IC50 [5] was 3.1 ± 1 µM and the IC50 [6, 44] was 8.5 to 60 µM. The IC50 [6, 45] was 0.22 to 3.4 µM, the IC50 [7] was 9.8 ± 7.4 µM and the IC50 [8] was 44 ± 2.1 µM. It also gave an IC50 [9] of 1.7 ± 0.21 µM, an IC50 [10] of 2.2 µM and an IC50 [11, 46] of 1.5 µM. The IC50 [11, 47] was 1.5 ± 1.3 µM, the IC50 [12] was 6.5 ± 3.5 µM and the IC50 [13] was 10 ± 5.2 µM. The IC50 [14] was 38 ± 2.8 µM, the IC50 [15] was 67 ± 18 µM and the IC50 [16] was 38 ± 2.1 µM. For the same compound, the IC50 [17] was 5.4 ± 0.96 µM, the IC50 [18] was 0.51 ± 0.064 µM and the IC50 [19] was 41 ± 2.8 µM. For the same compound, the IC50 [20] was 43 ± 4.2 µM, the IC50 [21] was 46 ± 7.1 µM and the IC50 [22] was 84 ± 6 µM. It also gave an IC50 [23] of 0.96 ± 0.37 µM, an IC50 [24] of 36 ± 13 µM and an IC50 [25] of at least 100 µM. For the same compound, the IC50 [26] was 26 ± 4.2 µM, the IC50 [27] was 38 ± 12 µM and the IC50 [28] was 48 ± 1.4 µM. For the same compound, the IC50 [29] was 36 ± 9.2 µM, the IC50 [30] was 73 ± 3.5 µM and the IC50 [31] was 5.7 ± 7.2 µM. It also gave an IC50 [32] of 1.1 ± 0.73 µM, an IC50 [33] of 45 ± 16 µM and an IC50 [34] of 1.2 ± 0.6 µM. It also gave an IC50 [35] of 0.24 ± 0.19 µM, an IC50 [36] of 39 ± 3.5 µM and an IC50 [37] of 38 ± 6.4 µM. For the same compound, the IC50 [38] was 50 ± 3.5 µM, the IC50 [39] was 0.79 ± 0.092 µM and the IC50 [40] was 0.61 ± 0.04 µM. The IC50 [41] was 52 ± 1.4 µM, the IC50 [42] was 9.1 ± 0.35 µM and the IC50 [43] was 50 ± 3.5 µM.
